From ChEMBL document CHEMBL3885881, “DrugMatrix”

Species on record: Rattus norvegicus
Assay: DrugMatrix - Regimen: Daily Repeat
Assay type: toxicity, organism-based, Sprague-Dawley
Set-up: regimen Daily Repeat, gender Male, age 6-8 weeks
Settings: in vivo, po, route oral GAVAGE, vehicle .5 % CMC; for BASOPHIL / EOSINOPHIL / ERYTHROCYTE COUNT / HEMATOCRIT / HEMOGLOBIN / LEUKOCYTE COUNT / LYMPHOCYTE / MEAN CORPUSCULAR HEMOGLOBIN / MEAN CORPUSCULAR HEMOGLOBIN CONCENTRATION / MEAN CORPUSCULAR VOLUME / MONOCYTE / NEUTROPHIL / PLATELET COUNT: tissue Blood; for ALANINE AMINOTRANSFERASE / ALBUMIN / ALKALINE PHOSPHATASE / ASPARTATE AMINOTRANSFERASE / BLOOD UREA NITROGEN / CHLORIDE / CHOLESTEROL / CREATINE PHOSPHOKINASE / CREATININE / GLUCOSE / PHOSPHORUS / POTASSIUM / SODIUM / TOTAL BILIRUBIN / TOTAL PROTEIN: tissue Plasma
[1] = 0 mg/kg, 72 h, dose level Control, time 3 day
[2] = 0 mg/kg, 120 h, dose level Control, time 5 day
[3] = 570 mg/kg, 72 h, dose level High, time 3 day
[4] = 570 mg/kg, 120 h, dose level High, time 5 day

COc1ccc2c(c1OC)C(=O)O[C@@H]2[C@H]1c2c(cc3c(c2OC)OCO3)CCN1C [NOSCAPINE]
BASOPHIL [1]: 0.68%
EOSINOPHIL [1]: 0.46%
ERYTHROCYTE COUNT [1]: 7.15 x10E6/uL
HEMATOCRIT [1]: 45.44%
HEMOGLOBIN [1]: 14.1 G/DL
LEUKOCYTE COUNT [1]: 9.78 x10E3/uL
LYMPHOCYTE [1]: 84.44%
MEAN CORPUSCULAR HEMOGLOBIN [1]: 19.72 pg
MEAN CORPUSCULAR HEMOGLOBIN CONCENTRATION [1]: 31 G/DL
MEAN CORPUSCULAR VOLUME [1]: 63.66 fL
MONOCYTE [1]: 2.14%
NEUTROPHIL [1]: 11.16%
PLATELET COUNT [1]: 1378.2 x10E3/uL
ALANINE AMINOTRANSFERASE [1]: 42.33 u/L
ALBUMIN [1]: 3.8 G/DL
ALKALINE PHOSPHATASE [1]: 388.17 u/L
ASPARTATE AMINOTRANSFERASE [1]: 68 u/L
BLOOD UREA NITROGEN [1]: 16.17 mg/dL
CHLORIDE [1]: 96.67 MEQ/L
CHOLESTEROL [1]: 71 mg/dL
CREATINE PHOSPHOKINASE [1]: 156.17 u/L
CREATININE [1]: 0.57 mg/dL
GLUCOSE [1]: 193.67 mg/dL
PHOSPHORUS [1]: 11.43 mg/dL
POTASSIUM [1]: 7 MEQ/L
SODIUM [1]: 140.33 MEQ/L
TOTAL BILIRUBIN [1]: 0.48 mg/dL
TOTAL PROTEIN [1]: 6.8 G/DL
BASOPHIL [2]: 1.47%
EOSINOPHIL [2]: 1%
ERYTHROCYTE COUNT [2]: 7.12 x10E6/uL
HEMATOCRIT [2]: 45.47%
HEMOGLOBIN [2]: 14.1 G/DL
LEUKOCYTE COUNT [2]: 11.38 x10E3/uL
LYMPHOCYTE [2]: 82.57%
MEAN CORPUSCULAR HEMOGLOBIN [2]: 19.82 pg
MEAN CORPUSCULAR HEMOGLOBIN CONCENTRATION [2]: 31.02 G/DL
MEAN CORPUSCULAR VOLUME [2]: 63.88 fL
MONOCYTE [2]: 2.2%
NEUTROPHIL [2]: 11.97%
PLATELET COUNT [2]: 1267 x10E3/uL
ALANINE AMINOTRANSFERASE [2]: 38 u/L
ALBUMIN [2]: 3.72 G/DL
ALKALINE PHOSPHATASE [2]: 391 u/L
ASPARTATE AMINOTRANSFERASE [2]: 65.83 u/L
BLOOD UREA NITROGEN [2]: 14.17 mg/dL
CHLORIDE [2]: 107.67 MEQ/L
CHOLESTEROL [2]: 61 mg/dL
CREATINE PHOSPHOKINASE [2]: 148.33 u/L
CREATININE [2]: 0.57 mg/dL
GLUCOSE [2]: 177.17 mg/dL
PHOSPHORUS [2]: 12.07 mg/dL
POTASSIUM [2]: 7.2 MEQ/L
SODIUM [2]: 151.5 MEQ/L
TOTAL BILIRUBIN [2]: 0.58 mg/dL
TOTAL PROTEIN [2]: 6.72 G/DL
BASOPHIL [3]: 0.35%
EOSINOPHIL [3]: 0.35%
ERYTHROCYTE COUNT [3]: 7.71 x10E6/uL
HEMATOCRIT [3]: 48.95%
HEMOGLOBIN [3]: 15.2 G/DL
LEUKOCYTE COUNT [3]: 9.57 x10E3/uL
LYMPHOCYTE [3]: 82.8%
MEAN CORPUSCULAR HEMOGLOBIN [3]: 19.7 pg
MEAN CORPUSCULAR HEMOGLOBIN CONCENTRATION [3]: 31.05 G/DL
MEAN CORPUSCULAR VOLUME [3]: 63.4 fL
MONOCYTE [3]: 3.35%
NEUTROPHIL [3]: 12%
PLATELET COUNT [3]: 1473 x10E3/uL
ALANINE AMINOTRANSFERASE [3]: 27.5 u/L
ALBUMIN [3]: 3.9 G/DL
ALKALINE PHOSPHATASE [3]: 381.5 u/L
ASPARTATE AMINOTRANSFERASE [3]: 56 u/L
BLOOD UREA NITROGEN [3]: 17.5 mg/dL
CHLORIDE [3]: 96 MEQ/L
CHOLESTEROL [3]: 131 mg/dL
CREATINE PHOSPHOKINASE [3]: 176 u/L
CREATININE [3]: 0.45 mg/dL
GLUCOSE [3]: 166 mg/dL
PHOSPHORUS [3]: 12.8 mg/dL
POTASSIUM [3]: 6.5 MEQ/L
SODIUM [3]: 140.5 MEQ/L
TOTAL BILIRUBIN [3]: 0.55 mg/dL
TOTAL PROTEIN [3]: 7.25 G/DL
BASOPHIL [4]: 1.17%
EOSINOPHIL [4]: 0.53%
ERYTHROCYTE COUNT [4]: 7.1 x10E6/uL
HEMATOCRIT [4]: 42.8%
HEMOGLOBIN [4]: 13.67 G/DL
LEUKOCYTE COUNT [4]: 9.28 x10E3/uL
LYMPHOCYTE [4]: 75.47%
MEAN CORPUSCULAR HEMOGLOBIN [4]: 19.27 pg
MEAN CORPUSCULAR HEMOGLOBIN CONCENTRATION [4]: 31.97 G/DL
MEAN CORPUSCULAR VOLUME [4]: 60.33 fL
MONOCYTE [4]: 2.07%
NEUTROPHIL [4]: 19.87%
PLATELET COUNT [4]: 1766.33 x10E3/uL
ALANINE AMINOTRANSFERASE [4]: 36 u/L
ALBUMIN [4]: 3.7 G/DL
ALKALINE PHOSPHATASE [4]: 318.5 u/L
ASPARTATE AMINOTRANSFERASE [4]: 57 u/L
BLOOD UREA NITROGEN [4]: 13.5 mg/dL
CHLORIDE [4]: 106 MEQ/L
CHOLESTEROL [4]: 100 mg/dL
CREATINE PHOSPHOKINASE [4]: 142 u/L
CREATININE [4]: 0.45 mg/dL
GLUCOSE [4]: 188 mg/dL
PHOSPHORUS [4]: 12.45 mg/dL
POTASSIUM [4]: 7 MEQ/L
SODIUM [4]: 149 MEQ/L
TOTAL BILIRUBIN [4]: 0.2 mg/dL
TOTAL PROTEIN [4]: 6.75 G/DL
